What was measured:
[1] = biological target: T1, human neutrophil elastase (HNE) (Homo sapiens, UniProt P08246); assay: chromogenic enzyme assay with MeO-Suc-AAPV-pNA (positive control); type: biochemical
T1 construct: gene ELANE
T1 sequence (P08246 30-247): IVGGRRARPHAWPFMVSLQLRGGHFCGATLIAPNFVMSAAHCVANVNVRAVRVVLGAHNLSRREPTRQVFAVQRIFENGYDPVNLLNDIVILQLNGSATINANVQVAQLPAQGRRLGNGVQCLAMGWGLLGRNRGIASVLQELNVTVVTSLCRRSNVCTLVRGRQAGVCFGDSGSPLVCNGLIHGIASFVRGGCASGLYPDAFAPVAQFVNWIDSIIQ

[2] = biological target: T1, human neutrophil elastase (HNE); assay: chromogenic enzyme assay with MeO-Suc-AAPV-pNA; Lineweaver-Burk and Dixon plots; type: biochemical

SMILES | IC50 [1] [µM] | Ki [2] [µM]
O=C(O[C@@H]1Cc2c(O)cc(O)cc2O[C@@H]1c1cc(O)c(O)c(O)c1)c1cc(O)c(O)c(O)c1 [epigallocatechin gallate] | 7.2 ± 0.5 | 
C=C1C(=O)O[C@@H]2CC(C)=C([C@@H](C)CCCOC(C)=O)[C@@H](O)[C@H]12 [ABL, 1-O-acetylbritannilactone] |  | 2.4
